# Laboratory results published in US20150119244A1, “AGRICULTURAL USES OF HYTd” (Agrinos AS, priority 2011, published 2015).
# Test system: potatoes
# Assay: Potato trial in soil infested with fungi, test vs Metam-Sodium (Example 4)
# Source text: Three hundred liters of Metam Sodium was applied per hectare.
smiles,measurement,setting,value
CNC(=S)S [Metam-Sodium],Kilos,potatoes of size 1st,0.32 Kilos
same,Pieces,potatoes of size 1st,1
same,Kilos,potatoes of size 4ta,3.63 Kilos
same,Pieces,potatoes of size 4ta,88
same,Kilos,potatoes of size 2d,6.46 Kilos
same,Pieces,potatoes of size 2d,35
same,Kilos,potatoes of size 3d,2.67 Kilos
same,Pieces,potatoes of size 3d,24
same,Kilos,potatoes of size GIANT,0.43 Kilos
same,Pieces,potatoes of size GIANT,1
same,Kilos,potatoes of size MONO,1.47 Kilos
same,Pieces,potatoes of size MONO,6
same,Kilos,"potatoes, TOTAL of all sizes",15.0 Kilos
same,Pieces,"potatoes, TOTAL of all sizes",155
